What is called IC50 is the concentration needed to halve the response being measured.

This note sets out measurements from patent US20110212968A1, “PHENETHYLAMIDE DERIVATIVES AND THEIR HETEROCYCLIC ANALOGUES” (priority 2008, published 2011).

Each structure is given as a SMILES string.

The target in assay [1] is T1, human orexin-1 receptor (Homo sapiens, UniProt O43613).
T1 construct: expressed in transfected cells; host or cells: CHO (Chinese hamster ovary) cells, kept under G418 selection
T1 sequence (O43613 1-425): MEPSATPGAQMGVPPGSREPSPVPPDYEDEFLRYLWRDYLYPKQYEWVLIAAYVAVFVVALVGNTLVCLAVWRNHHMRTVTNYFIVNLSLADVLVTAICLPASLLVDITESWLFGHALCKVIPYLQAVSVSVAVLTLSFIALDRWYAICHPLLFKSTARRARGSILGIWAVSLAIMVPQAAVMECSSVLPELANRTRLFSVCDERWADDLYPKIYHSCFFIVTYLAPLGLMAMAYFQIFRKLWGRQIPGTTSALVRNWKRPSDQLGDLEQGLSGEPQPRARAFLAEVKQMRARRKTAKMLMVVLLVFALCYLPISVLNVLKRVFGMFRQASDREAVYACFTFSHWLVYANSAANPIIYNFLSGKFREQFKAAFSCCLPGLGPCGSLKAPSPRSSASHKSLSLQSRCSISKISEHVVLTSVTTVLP
Briefly: Intracellular calcium measurement (FLIPR Tetra), orexin receptor antagonistic activity, OX1. It is filed as cell-based. To be noted: CHO cells expressing human orexin-1 receptor, 3 nM orexin-A, conditions B, normalized (*) using IC50 of on-plate reference compound. In outline: (§1)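 Recombinant CHO cells expressing human OX1 or OX2, loaded with fluo-4 AM plus probenecid, were preincubated with antagonist 10 min, then stimulated with 3 nM human orexin-A. Peak fluorescence was compared with vehicle; IC50 derived, sometimes normalized to an on-plate reference compound; two pipetting/cell-splitting conditions were used.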
On the technique in general: Calcium flux is commonly read through the fluorescence of an indicator in the cells.

In assay [2] the target is T2, human orexin-2 receptor (Homo sapiens, UniProt O43614).
T2 construct: expressed in transfected cells; host or cells: CHO (Chinese hamster ovary) cells, kept under G418 selection
T2 sequence (O43614 1-444): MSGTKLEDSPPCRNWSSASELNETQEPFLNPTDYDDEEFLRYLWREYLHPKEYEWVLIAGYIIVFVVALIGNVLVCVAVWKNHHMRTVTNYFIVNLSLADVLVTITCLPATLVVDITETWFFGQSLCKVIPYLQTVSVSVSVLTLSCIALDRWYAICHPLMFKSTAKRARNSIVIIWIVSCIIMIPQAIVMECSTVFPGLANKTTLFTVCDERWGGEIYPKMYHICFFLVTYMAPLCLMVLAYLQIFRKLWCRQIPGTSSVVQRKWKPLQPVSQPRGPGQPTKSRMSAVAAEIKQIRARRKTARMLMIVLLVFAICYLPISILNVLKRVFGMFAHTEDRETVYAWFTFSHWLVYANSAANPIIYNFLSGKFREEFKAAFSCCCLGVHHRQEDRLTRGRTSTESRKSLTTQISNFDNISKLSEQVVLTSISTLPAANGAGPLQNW
The assay can be described thus: Intracellular calcium measurement (FLIPR Tetra), orexin receptor antagonistic activity, OX2. It is filed as cell-based. To be noted: CHO cells expressing human orexin-2 receptor, 3 nM orexin-A, conditions B, normalized (*) using IC50 of on-plate reference compound. In outline:
as §1

For `Cc1cccc(-c2oc(C3CC3)nc2C(=O)N(CCc2c[nH]c3ccccc23)CC2CC2)c1` [Example 607, 2-Cyclopropyl-5-m-tolyl-oxazole-4-carboxylic acid cyclopropylmethyl-[2-(1H-indol-3-yl)-ethyl]-amide], the IC50 in assay [1] came out at 383 nM; in assay [2] it was 35 nM.
